US6413782B1, “Methods of manufacturing high-throughput screening systems” (priority 1996, dated 2002)

Target: β-galactosidase (Escherichia coli, UniProt P00722)
Experiment: Enzyme inhibitor screen in planar chip format (continuous flow, fluorogenic substrate FDG)
Type: biochemical
Conditions: IPTG 200 mM in inhibitor well; β-Galactosidase 180 U/ml; substrate FDG 400 μM; 20 mM Tris pH 8.5; versus buffer control
Experimental: The numbers adjacent the channels represent the lengths of each channel in millimeters. Two voltage states were applied to the ports of the chip. […] A control experiment was also run in which buffer was placed into the inhibitor well.
Enzyme: β-Galactosidase (180 U/ml in 50 mM Tris/ 300 μg/ml BSA
Substrate: Fluorescein-digalactoside (FDG) 400 μM
Buffer: 20 mM Tris, pH 8.5
Enzyme and substrate were continually pumped through the main channel from their respective ports under both voltage states. Inhibitor or Buffer were delivered into the main channel alternately from their respective wells by alternating between voltage state 1 and voltage state 2. When no inhibitor was present at the detection end of the main channel, a base line level of fluorescent product was produced. […] FIG. 9B a superposition of the two data segments from FIG. 9A, directly comparing the inhibitor data with control (buffer) data.

Chain of β-galactosidase (P00722 2-1024): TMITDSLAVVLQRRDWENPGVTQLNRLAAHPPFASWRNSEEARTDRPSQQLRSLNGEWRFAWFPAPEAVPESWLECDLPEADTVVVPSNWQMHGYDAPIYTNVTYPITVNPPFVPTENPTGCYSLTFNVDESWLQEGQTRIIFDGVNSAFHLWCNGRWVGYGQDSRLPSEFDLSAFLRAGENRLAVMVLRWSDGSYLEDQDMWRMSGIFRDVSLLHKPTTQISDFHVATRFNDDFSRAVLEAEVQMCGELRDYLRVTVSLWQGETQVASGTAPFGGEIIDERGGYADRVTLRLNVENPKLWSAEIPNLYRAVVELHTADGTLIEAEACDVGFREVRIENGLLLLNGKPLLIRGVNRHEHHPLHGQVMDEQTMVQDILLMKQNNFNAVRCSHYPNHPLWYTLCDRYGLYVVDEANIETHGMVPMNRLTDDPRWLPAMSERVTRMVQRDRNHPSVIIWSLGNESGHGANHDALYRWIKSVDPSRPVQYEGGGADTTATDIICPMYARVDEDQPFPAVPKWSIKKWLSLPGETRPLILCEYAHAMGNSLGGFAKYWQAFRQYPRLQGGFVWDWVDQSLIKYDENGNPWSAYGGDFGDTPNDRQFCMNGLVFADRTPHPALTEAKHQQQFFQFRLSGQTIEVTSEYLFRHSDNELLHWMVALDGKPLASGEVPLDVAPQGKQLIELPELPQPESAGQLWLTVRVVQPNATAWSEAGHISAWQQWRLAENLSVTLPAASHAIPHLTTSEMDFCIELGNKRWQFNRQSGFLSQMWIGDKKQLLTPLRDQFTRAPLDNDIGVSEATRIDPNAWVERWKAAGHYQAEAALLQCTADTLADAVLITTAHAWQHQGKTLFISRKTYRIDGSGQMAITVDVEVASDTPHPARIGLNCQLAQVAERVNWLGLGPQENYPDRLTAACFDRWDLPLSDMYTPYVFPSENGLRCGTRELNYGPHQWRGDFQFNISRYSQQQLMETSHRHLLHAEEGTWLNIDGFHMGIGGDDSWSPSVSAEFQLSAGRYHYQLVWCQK

For CC(C)S[C@@H]1O[C@H](CO)[C@H](O)[C@H](O)[C@H]1O [IPTG], the “fluorescent signal upon introduction of inhibitor (inhibition of the enzyme/substrate interaction)” value was “greatly reduced”.
